This note sets out measurements from PubChem BioAssay AID1208 (EPA DSSTox, 2008).

The subject of the data set is rat chronic carcinogenicity bioassay, TD50. As to the kind of experiment: DSSTox (CPDBAS) Carcinogenic Potency Database Summary Rat Bioassay Results. The settings on record: for Potency: stronger effect = lower value. The gist of the method:
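The activity score maps log10(1/TD50_Rat_mmol) linearly onto 1–100; actives without a computed TD50, such as mixtures, receive 50. Source data are chronic rat carcinogenicity tests, using the most positive experiment for each sex.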

Setting [1] is: TD50_Rat_Note: no positive results.
Setting [2] is: TD50_Rat_Note: no positive results, TargetSites_Rat_Female: no positive results.
Setting [3] is: TargetSites_Rat_Female: no positive results.
The mark [4] stands for this setting: TD50_Rat_Note: no positive results, TargetSites_Rat_BothSexes: no positive results.
Where [5] appears, read: TD50_Rat_Note: TD50 is harmonic mean of more than one positive test, TargetSites_Rat_Female: liver.

The source made the active and inactive calls.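 The calls were made as follows: active = at least one rat sex group has a carcinogenic potency value and tumor site recorded; inconclusive = only rat studies were judged inadequate by the national testing program; inactive = no potency or tumor site, with negative rat experiments.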

With `Clc1cc2c(cc1Cl)Oc1cc(Cl)c(Cl)cc1O2`, the Potency (TD50_Rat_Note: TD50 is harmonic mean of more than one positive test, greater than ten-fold variation among TD50 values for positive res, TargetSites_Rat_Female: liver, lung) is 2.35e-05 mg/kg/day.

As for `COc1cc(OC)c2c3c(c(=O)oc2c1)CCC3=O`, the outcome under setting [1] is “inactive; no positive results”.

As to `CCCCCCCCS(=O)C(C)Cc1ccc2c(c1)OCO2` (stereo not given), the outcome under setting [2] is “inactive; no positive results”.

In the case of `O=P1(N(CCCl)CCCl)NCCCO1` (stereo not given), the Potency (TD50_Rat_Note: TD50 is harmonic mean of more than one positive test, greater than ten-fold variation among TD50 values for positive res, TargetSites_Rat_Female: all tumor bearing animals, TargetSites_Rat_BothSexes: hematopoietic system, nervous system, urinary bladder) is 2.21 mg/kg/day.

`Clc1cnc(Oc2ccc(Oc3ncc(Cl)cc3Cl)cc2)c(Cl)c1`: under setting [1], the outcome is “inactive; no positive results”.

Regarding `Cc1ccc(C)c(C)c1`, under setting [3], the Potency was 4350 mg/kg/day.

Turning to `CCC(CC)[N+](=O)[O-]`, the Potency is 2.37 mg/kg/day.

Consider `NC(=O)Cc1c([O-])on[n+]1Cc1ccccc1`, for which the Potency was 4.24 mg/kg/day.

For the molecule `CN(C)Nc1nc(-c2ccc([N+](=O)[O-])o2)cs1`, for the setting “TD50_Rat_Note: harmonic mean of TD50 includes a value for upper 99% confidence limit from study with 100% tumor incidence but no lifeta, TargetSites_Rat_Female: hematopoietic system, mammary gland”, the Potency was 0.41 mg/kg/day.

With `CC(=O)Oc1ccccc1C(=O)O`, the outcome under setting [4] is “inactive; no positive results”.

On to `CCCCCC(N)=O`, for which the outcome under setting [2] was “inactive; no positive results”.

On to `COc1ccc(O)cc1`, for which the Potency (TD50_Rat_Note: TD50 is harmonic mean of more than one positive test, TargetSites_Rat_Female: stomach) is 658 mg/kg/day.

For the molecule `Oc1ccccc1-c1ccccc1`, the Potency was 232 mg/kg/day. For the same molecule, under “TD50_Rat_Note: TD50 is harmonic mean of more than one positive test, greater than ten-fold variation among TD50 values for positive res, TargetSites_Rat_Female: urinary bladder”, the Potency is 672 mg/kg/day.

On to `O=C(O)c1[nH]n(-c2ccc(S(=O)(=O)O)cc2)c(=O)c1N=Nc1ccc(S(=O)(=O)O)cc1`, for which, under setting [2], the outcome was “inactive; no positive results”.

For `NC(=O)N(CCF)N=O`, the Potency was 0.125 mg/kg/day.

With `Cc1ccc(N)c(C)c1`, under setting [1], the outcome was “inactive; no positive results”.

As for `CC(=O)CN(CC(O)CO)N=O` (stereo not given), the Potency (TargetSites_Rat_Female: esophagus, oral cavity, stomach) is 0.0352 mg/kg/day.

On to `Cc1c(N(C)CS(=O)(=O)O)c(=O)n(-c2ccccc2)n1C`, for which the outcome under setting [2] is “inactive; no positive results”.

For `CC(COc1ccc(C(C)(C)C)cc1)OS(=O)OCCCl` (stereo not given), where the note is “TD50_Rat_Note: TD50 is harmonic mean of more than one positive test, TargetSites_Rat_BothSexes: liver”, the Potency is 96.7 mg/kg/day.

For the molecule `Nc1ncc([N+](=O)[O-])s1`, where the note is “TargetSites_Rat_Female: kidney, lung, mammary gland”, the Potency was 44.6 mg/kg/day.

Regarding `[O]=[Cr][O][Cr]=[O]`, the result under setting [4] was inactive.

Turning to `O=C1O[C@H]([C@H](O)CO)C(O)=C1O`, under setting [2], the outcome is “inactive; no positive results”.

For `NCCCCCCCCCCC(=O)O`, the Potency under setting [3] is 1100 mg/kg/day.

For `CC(=O)OC/C=C(\C)CCC=C(C)C`, the outcome under setting [2] is “inactive; no positive results”.

For the molecule `NNc1nc(-c2ccccc2)cs1`, the outcome under setting [2] was inactive.

For `CCCc1ccc2c(c1)OCO2`, the Potency (TargetSites_Rat_BothSexes: esophagus) was 143 mg/kg/day.

Consider `c1ccc(NNc2ccccc2)cc1`, for which the Potency (TD50_Rat_Note: TD50 is harmonic mean of more than one positive test, TargetSites_Rat_Female: liver, mammary gland) is 5.59 mg/kg/day.

As for `NC(=O)CI`, the outcome under setting [1] was “inactive; no positive results”.

As to `CN(C)NC(=O)CCC(=O)O`, under “TD50_Rat_Note: no positive results are statistically significant, TargetSites_Rat_Female: uterus”, the Potency was 2500 mg/kg/day.

For the molecule `O=NN1CCCCC1`, under “TD50_Rat_Note: TD50 is harmonic mean of more than one positive test, TargetSites_Rat_BothSexes: esophagus, liver, nasal cavity”, the Potency was 1.43 mg/kg/day.

Take `CC1CCC(C(C)C)C(O)C1` (stereo not given): the outcome under setting [2] is “inactive; no positive results”.

As for `[O-][Cl+]O`, under setting [2], the outcome was “inactive; no positive results”.

With `Nc1ncn[nH]1`, the Potency (TD50_Rat_Note: TD50 is harmonic mean of more than one positive test, TargetSites_Rat_Female: pituitary gland, thyroid gland) is 9.94 mg/kg/day.

Regarding `C[C@@H]1CC2(O[C@@H]2C)C(=O)O[C@@H]2CCN(C)C/C=C(/COC(=O)[C@]1(C)O)C2=O` (stereo not given in full), the Potency (TD50_Rat_Note: TD50 is harmonic mean of more than one positive test, TargetSites_Rat_Female: liver, vascular system) was 0.922 mg/kg/day.

As for `O.O=S(=O)([O-])[O-].[Mn+2]`, the outcome under setting [2] is “inactive; no positive results”.

Take `Nc1ccc(Oc2ccc(Cl)cc2)cc1`: the Potency was 37.6 mg/kg/day.

For the molecule `O=[N+]([O-])c1ccc2nc[nH]c2c1`, the outcome under setting [2] was “inactive; no positive results”.

Consider `Nc1c(Cl)c(Cl)nc(C(=O)O)c1Cl`, for which the outcome under setting [2] is “inactive; no positive results”.

Consider `Cn1cnc2nc(N)[nH]c(=O)c21`, for which, under setting [4], the result was inactive.

Take `CCCCNC(=O)NS(=O)(=O)c1ccc(C)cc1`: the outcome under setting [2] was “inactive; no positive results”.

As to `Cc1ccc(C)c(OCCCC(C)(C)C(=O)O)c1`, the Potency under setting [2] was 247 mg/kg/day.

For the molecule `O=C(O)CC(O)(CC(=O)O)C(=O)O`, under setting [1], the outcome is “inactive; no positive results”.

Take `O=C1N(CCO)CCN1/N=C/c1ccc([N+](=O)[O-])o1`: the Potency (TargetSites_Rat_Female: mammary gland) was 16.7 mg/kg/day.

For `S=C=NCCc1ccccc1`, the outcome under setting [1] was “inactive; no positive results”.

For the molecule `NNC(N)=S`, the result under setting [2] was inactive.

Turning to `NC(=O)N/N=C/c1ccco1`, the outcome under setting [2] was inactive.

Consider `Nc1c(Br)cc(Br)c2c1C(=O)c1ccccc1C2=O`, for which the Potency (TD50_Rat_Note: TD50 is harmonic mean of more than one positive test, TargetSites_Rat_Female: kidney, large intestine, liver, urinary bladder) was 46 mg/kg/day.

Take `CC(=O)Nc1ccc(OCC(O)CNC(C)C)cc1` (stereo not given): the outcome under setting [2] is “inactive; no positive results”.

As to `Cn1c(N)nc2ncc(-c3ccccc3)cc21`, the Potency (TD50_Rat_Note: TD50 is harmonic mean of more than one positive test, TargetSites_Rat_Female: large intestine, mammary gland) is 1.78 mg/kg/day.

In the case of `OC(Cn1cncn1)(Cn1cncn1)c1ccc(F)cc1F`, under setting [3], the Potency is 80.7 mg/kg/day.

Turning to `CCn1cc(C(=O)O)c(=O)c2ccc(C)nc21`, under “TD50_Rat_Note: TD50 is harmonic mean of more than one positive test, TargetSites_Rat_Female: clitoral gland”, the Potency is 201 mg/kg/day.

In the case of `CCNc1nc(Cl)nc(NC(C)C)n1`, for the setting “TD50_Rat_Note: TD50 is harmonic mean of more than one positive test, TargetSites_Rat_Female: hematopoietic system, mammary gland, uterus”, the Potency is 36.6 mg/kg/day.

`CC(C)OC(=O)Nc1cccc(Cl)c1`: the outcome under setting [2] is “inactive; no positive results”.

Turning to `CN[C@H]1CC[C@@H](c2ccc(Cl)c(Cl)c2)c2ccccc21`, the outcome under setting [2] was inactive.

Regarding `O=C1O[C@H]([C@@H](O)CO)C(O)=C1O`, the outcome under setting [2] was “inactive; no positive results”.

On to `O=S1(=O)CCCO1`, for which the Potency (TD50_Rat_Note: TD50 is harmonic mean of more than one positive test, TargetSites_Rat_Female: hematopoietic system, mammary gland, nervous system, small intestine) was 3.84 mg/kg/day.

With `NC(=O)N(CC(=O)O)N=O`, the Potency (TD50_Rat_Note: TD50 is harmonic mean of more than one positive test, greater than ten-fold variation among TD50 values for positive res, TargetSites_Rat_Female: mammary gland, small intestine) is 4.31 mg/kg/day.

For `CCOC(=O)C(C)(C)Oc1ccc(Cl)cc1`, the Potency was 169 mg/kg/day.

`CN(CCCO)N=O`: the Potency (TD50_Rat_Note: TD50 is harmonic mean of more than one positive test, TargetSites_Rat_Female: liver, lung) was 1.66 mg/kg/day.

Turning to `CN(CCc1ccccc1)N=O`, for the setting “TD50_Rat_Note: TD50 is harmonic mean of more than one positive test”, the Potency was 0.00998 mg/kg/day.

For `OCCOCCO`, under setting [3], the Potency was 1660 mg/kg/day.

Regarding `O=[N+]([O-])c1ccc(Nc2ccc(Nc3ccccc3)c(S(=O)(=O)O)c2)c([N+](=O)[O-])c1`, the Potency (TargetSites_Rat_Female: kidney) is 1710 mg/kg/day.

As for `CN(C)N`, the outcome under setting [2] was “inactive; no positive results”.

Consider `C[N+](C)(C)CCCl`, for which the outcome under setting [2] is “inactive; no positive results”.

In the case of `COc1cc2c(c3c1c(=O)c1ccccc1n3C)C=CC(C)(C)O2`, the Potency (TD50_Rat_Note: positive test results only by intraperitoneal or intravenous injection, TD50 is harmonic mean of more than one positive, TargetSites_Rat_Female: mammary gland, peritoneal cavity) is 0.505 mg/kg/day.

For the molecule `O=Cc1ccccc1`, the outcome under setting [2] was “inactive; no positive results”.

For `COc1cccc(O)c1O`, the Potency is 48.7 mg/kg/day.

Turning to `C=CCc1ccc(OC)c(OC)c1`, the Potency (TD50_Rat_Note: TD50 is harmonic mean of more than one positive test, TargetSites_Rat_Female: liver, stomach) was 19.7 mg/kg/day.

As to `Cc1cc(O)c(C(C)(C)C)cc1Sc1cc(C(C)(C)C)c(O)cc1C`, the outcome under setting [2] was “inactive; no positive results”.

For the molecule `F`, under setting [2], the outcome was “inactive; no positive results”.

For `[N-]=[N+]=CC(=O)OC[C@H](N)C(=O)O`, the Potency (TD50_Rat_Note: positive test results only by intraperitoneal or intravenous injection, TargetSites_Rat_BothSexes: pancreas) was 0.793 mg/kg/day.

Consider `O=c1c(O)c(-c2ccc(O)c(O)c2)oc2cc(O)cc(O)c12`, for which, under “TD50_Rat_Note: TD50 is harmonic mean of more than one positive test, greater than ten-fold variation among TD50 values for positive res, TargetSites_Rat_Female: small intestine, urinary bladder”, the Potency is 10.1 mg/kg/day. Also, the outcome under setting [2] is “inactive; no positive results”.

As for `O=C(NCC1CCCCN1)c1cc(OCC(F)(F)F)ccc1OCC(F)(F)F` (stereo not given), the outcome under setting [2] was “inactive; no positive results”.

Regarding `CCCCC(CC)COP(=O)(OCC(CC)CCCC)OCC(CC)CCCC` (stereo not given), under setting [2], the outcome is “inactive; no positive results”.

As to `C=CC#N`, where the note is “TD50_Rat_Note: TD50 is harmonic mean of more than one positive test, greater than ten-fold variation among TD50 values for positive res, TargetSites_Rat_Female: ear Zymbals gland, mammary gland, nasal cavity, nervous system, oral cavity, small intestine, stomach”, the Potency is 16.9 mg/kg/day.

As for `Nc1ccc(N=Nc2ccc(-c3ccc(N=Nc4c(S(=O)(=O)O)cc5cc(S(=O)(=O)O)c(N=Nc6ccccc6)c(O)c5c4N)cc3)cc2)c(N)c1`, under setting [5], the Potency is 1.39 mg/kg/day.

Take `O=NN1CCCCCCCCCCCC1`: the Potency under setting [5] was 10.9 mg/kg/day.

For the molecule `CCCCCC`, under setting [2], the outcome is “inactive; no positive results”.
